According to ChEMBL document CHEMBL5726710, “Thiazolopyrrolidine inhibitors of ROR- γ” (2018):

Molecular target: T1, Nuclear receptor ROR-gamma (Homo sapiens, UniProt P51449)
T1 sequence (P51449 whole entry): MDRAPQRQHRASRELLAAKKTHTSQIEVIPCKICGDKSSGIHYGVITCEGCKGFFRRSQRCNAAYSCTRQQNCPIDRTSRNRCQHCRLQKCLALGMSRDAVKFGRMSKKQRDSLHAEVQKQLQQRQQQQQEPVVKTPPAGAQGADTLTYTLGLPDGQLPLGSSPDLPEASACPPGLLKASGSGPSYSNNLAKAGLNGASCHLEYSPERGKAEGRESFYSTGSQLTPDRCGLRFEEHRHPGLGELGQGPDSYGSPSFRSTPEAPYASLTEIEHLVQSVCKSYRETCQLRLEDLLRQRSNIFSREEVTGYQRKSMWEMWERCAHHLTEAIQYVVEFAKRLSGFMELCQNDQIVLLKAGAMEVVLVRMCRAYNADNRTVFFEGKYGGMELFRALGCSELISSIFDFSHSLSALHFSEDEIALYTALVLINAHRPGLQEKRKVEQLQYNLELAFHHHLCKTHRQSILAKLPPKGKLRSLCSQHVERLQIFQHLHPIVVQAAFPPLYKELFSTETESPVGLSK
Assay: Binding Assay: Compounds of the present invention were tested for ability to bind to RORγ in a cell-free competition assay with commercially available radio-ligand (RL), 25-hydroxy [26,27-3H]— cholesterol (PerkinElmer, Cat. # NET674250UC), for a ligand binding site on a recombinant RORγ Ligand Binding Domain (LBD) protein expressed as a 6×His-Glutathione-S-Transferase (GST) fusion (“6×His” disclosed as SEQ ID NO: 2). The assay was performed in 96-well SPA plates (PerkinElmer, Cat. #1450-401) in 50 mM HEPES buffer, pH 7.4, containing 150 mM NaCl, 5 mM MgCl2, 10% (v/v) glycerol, 2 mM CHAPS, 0.5 mM β-octylglucopyranoside and 5 mM DTT. Tested compounds were dissolved in DMSO, and semi-log (3.162×) serial dilutions of the compounds were prepared in the same solvent. Two μL of the DMSO solutions were mixed with 28 μL of 8.6 nM 25-hydroxy [26,27-3H]— cholesterol and 50 μL of 24 nM RORγ LBD. The plate was shaken at 700 rpm for 20 min and incubated for 10 min at rt, after which 40 μL of poly-Lys YSi SPA beads (PerkinElmer, Cat. # RPNQ0010) were added to achieve 50 μg of the beads per well. The plate was incubated on an orbital shaker for 20 min and then for 10 min without agitation at rt. SPA signal for tritium beta radiation was registered on PerkinElmer Microbeta plate reader. […]

CC(C)[C@H]1c2nc(NS(=O)(=O)c3cccc(C(F)(F)F)c3)sc2CN1Cc1ccc(Cl)cc1
Ki: > 1000 nM
